The structures appear in SMILES notation. Values after ≈ are worked out from the molar mass of the structure shown.

In assay [1] the test system is Plasmodium falciparum. The assay can be described thus: Antimalarial activity against Plasmodium falciparum K1 by [3H]hypoxanthine incorporation assay. It is filed as functional, organism-based.
In assay [2] the test system is Plasmodium falciparum. The assay can be described thus: Antimalarial activity against Plasmodium falciparum NF54 by [3H]hypoxanthine incorporation assay in presence of 3:1 ratio of compound to 2,2,6,6,-tetramethyl-1-piperidinyloxy. Format: functional.
For assay [3], the system named is Plasmodium falciparum. The assay can be described thus: Antimalarial activity against Plasmodium falciparum NF54 by [3H]hypoxanthine incorporation assay in presence of 1:3 ratio of compound to 2,2,6,6,-tetramethyl-1-piperidinyloxy. Format: functional.
The subject of assay [4] is Plasmodium falciparum. The assay can be described thus: Antimalarial activity against Plasmodium falciparum NF54 by [3H]hypoxanthine incorporation assay in presence of carbaOZ277. It is filed as functional.
For assay [5], the system named is Plasmodium falciparum. The assay can be described thus: Antimalarial activity against Plasmodium falciparum NF54 by [3H]hypoxanthine incorporation assay in presence of 3:1 ratio of compound to 4-amino-2,2,6,6,-tetramethyl-1-piperidinyloxy. Format: functional.
In assay [6] the test system is Plasmodium falciparum. The assay can be described thus: Antimalarial activity against Plasmodium falciparum NF54 by [3H]hypoxanthine incorporation assay in presence of 1:3 ratio of compound to 4-carboxy-2,2,6,6,-tetramethyl-1-piperidinyloxy. It is filed as functional.
For assay [7], the system named is Plasmodium falciparum. Kind of assay: Antimalarial activity against Plasmodium falciparum NF54 by [3H]hypoxanthine incorporation assay in presence of 3:1 ratio of compound to 4-carboxy-2,2,6,6,-tetramethyl-1-piperidinyloxy. It is filed as functional.
The test system of assay [8] is Plasmodium falciparum. The assay can be described thus: Antimalarial activity against Plasmodium falciparum NF54 by [3H]hypoxanthine incorporation assay in presence of 1:1 ratio of compound to 4-amino-2,2,6,6,-tetramethyl-1-piperidinyloxy. Format: functional.
Assay [9] concerns Plasmodium falciparum. Kind of assay: Antimalarial activity against Plasmodium falciparum NF54 by [3H]hypoxanthine incorporation assay in presence of 1:1 ratio of compound to 4-hydroxy-2,2,6,6,-tetramethyl-1-piperidinyloxy. It is filed as functional.
Assay [10] has as its system Plasmodium falciparum. Kind of assay: Antimalarial activity against Plasmodium falciparum NF54 by [3H]hypoxanthine incorporation assay in presence of 1:1 ratio of compound to 4-carboxy-2,2,6,6,-tetramethyl-1-piperidinyloxy. It is filed as functional.
Assay [11] concerns Plasmodium falciparum. Kind of assay: Antimalarial activity against Plasmodium falciparum NF54 by [3H]hypoxanthine incorporation assay in presence 1:3 ratio of compound to deoxyartemisinin. Format: functional.
Assay [12] concerns Plasmodium falciparum. Kind of assay: Antimalarial activity against Plasmodium falciparum NF54 by [3H]hypoxanthine incorporation assay in presence 1:1 ratio of compound to deoxyartemisinin. It is filed as functional.
Assay [13] concerns Plasmodium falciparum. The assay can be described thus: Antimalarial activity against Plasmodium falciparum NF54 by [3H]hypoxanthine incorporation assay in presence 1:1 ratio of compound to carbaOZ277. It is filed as functional.
Assay [14] deals with Plasmodium falciparum. The assay can be described thus: Antimalarial activity against Plasmodium falciparum NF54 by [3H]hypoxanthine incorporation assay in presence of 4-oxo-2,2,6,6,-tetramethyl-1-piperidinyloxy. Format: functional.
Assay [15] has as its system Plasmodium falciparum. Kind of assay: Antimalarial activity against Plasmodium falciparum NF54 by [3H]hypoxanthine incorporation assay in presence 3:1 ratio of compound to carbaOZ277. It is filed as functional.
Assay [16] deals with Plasmodium falciparum. Kind of assay: Antimalarial activity against Plasmodium falciparum NF54 by [3H]hypoxanthine incorporation assay in presence of 3:1 ratio of compound to 4-oxo-2,2,6,6,-tetramethyl-1-piperidinyloxy. It is filed as functional.
Assay [17] concerns Plasmodium falciparum. The assay can be described thus: Antimalarial activity against Plasmodium falciparum NF54 by [3H]hypoxanthine incorporation assay in presence of 4-amino-2,2,6,6,-tetramethyl-1-piperidinyloxy. It is filed as functional.
Assay [18] deals with Plasmodium falciparum. The assay can be described thus: Antimalarial activity against Plasmodium falciparum NF54 by [3H]hypoxanthine incorporation assay in presence 3:1 ratio of compound to deoxyartemisinin. It is filed as functional.
Assay [19] concerns Plasmodium falciparum. Kind of assay: Antimalarial activity against Plasmodium falciparum NF54 by [3H]hypoxanthine incorporation assay in presence 1:3 ratio of compound to carbaOZ277. It is filed as functional.
Assay [20] deals with Plasmodium falciparum. Kind of assay: Antimalarial activity against Plasmodium falciparum NF54 by [3H]hypoxanthine incorporation assay in presence of deoxyartemisinin. Format: functional.
Assay [21] has as its system Plasmodium falciparum. The assay can be described thus: Antimalarial activity against Plasmodium falciparum NF54 by [3H]hypoxanthine incorporation assay in presence of 2,2,6,6,-tetramethyl-1-piperidinyloxy. Format: functional.
Assay [22] relates to Plasmodium falciparum. The assay can be described thus: Antimalarial activity against Plasmodium falciparum NF54 by [3H]hypoxanthine incorporation assay in presence of 1:1 ratio of compound to 4-oxo-2,2,6,6,-tetramethyl-1-piperidinyloxy. It is filed as functional.
Assay [23] relates to Plasmodium falciparum. Kind of assay: Antimalarial activity against Plasmodium falciparum NF54 by [3H]hypoxanthine incorporation assay in presence of 3:1 ratio of compound to 4-hydroxy-2,2,6,6,-tetramethyl-1-piperidinyloxy. Format: functional.
Assay [24] deals with Plasmodium falciparum. The assay can be described thus: Antimalarial activity against Plasmodium falciparum NF54 by [3H]hypoxanthine incorporation assay in presence of 4-hydroxy-2,2,6,6,-tetramethyl-1-piperidinyloxy. Format: functional.
In assay [25] the test system is Plasmodium falciparum. Kind of assay: Antimalarial activity against Plasmodium falciparum NF54 by [3H]hypoxanthine incorporation assay in presence of 4-carboxy-2,2,6,6,-tetramethyl-1-piperidinyloxy. It is filed as functional.
Assay [26] concerns Plasmodium falciparum. Kind of assay: Antimalarial activity against Plasmodium falciparum NF54 by [3H]hypoxanthine incorporation assay in presence of 1:3 ratio of compound to 4-amino-2,2,6,6,-tetramethyl-1-piperidinyloxy. Format: functional.
For assay [27], the system named is Plasmodium falciparum. The assay can be described thus: Antimalarial activity against Plasmodium falciparum NF54 by [3H]hypoxanthine incorporation assay in presence of 1:3 ratio of compound to 4-oxo-2,2,6,6,-tetramethyl-1-piperidinyloxy. Format: functional.
For assay [28], the system named is Plasmodium falciparum. Kind of assay: Antimalarial activity against Plasmodium falciparum NF54 by [3H]hypoxanthine incorporation assay in presence of 1:1 ratio of compound to 2,2,6,6,-tetramethyl-1-piperidinyloxy. It is filed as functional.
In assay [29] the test system is Plasmodium falciparum. The assay can be described thus: Antimalarial activity against Plasmodium falciparum NF54 by [3H]hypoxanthine incorporation assay in presence of 1:3 ratio of compound to 4-hydroxy-2,2,6,6,-tetramethyl-1-piperidinyloxy. Format: functional.
For assay [30], the system named is Plasmodium falciparum. The assay can be described thus: Antimalarial activity against Plasmodium falciparum NF54 by [3H]hypoxanthine incorporation assay. It is filed as functional, organism-based.
The mark [31] stands for this setting: Plasmodium falciparum, K1, read-out: IC50.

The IC50 is the concentration at which inhibition is half-maximal. For `CC1(C)CC(N)CC(C)(C)N1[O]` [TEMPAMINE], the IC50 in the assay on Plasmodium falciparum [1] (setting [31]) came out at 16 µg/mL (≈ 93.4 µM).
For the molecule `CC(C)(N)CNC(=O)C[C@H]1CC[C@]2(CC1)OO[C@]1(O2)C2CC3CC(C2)CC1C3` [OZ277], the FIC50 in the assay on Plasmodium falciparum [2] stood at 1.2; in the assay on Plasmodium falciparum [3], 1.8; in the assay on Plasmodium falciparum [4], 1.3; in the assay with Plasmodium falciparum [5], 1.7; with Plasmodium falciparum [6], 1.3; with Plasmodium falciparum [7] it was 1.2. Moreover, the FIC50 with Plasmodium falciparum [8] amounted to 2.4; in the assay on Plasmodium falciparum [9], 1.3; with Plasmodium falciparum [10], 1.3; in the assay with Plasmodium falciparum [11] it was 1.4; in the assay with Plasmodium falciparum [12] it was 1.3; in the assay with Plasmodium falciparum [13], 1.2. Also, the FIC50 in the assay with Plasmodium falciparum [14] worked out at 1.3; in the assay on Plasmodium falciparum [15], 1.1; in the assay with Plasmodium falciparum [16], 1.1; in the assay with Plasmodium falciparum [17], 2.1; in the assay on Plasmodium falciparum [18], 1.2; in the assay on Plasmodium falciparum [19], 1.2. Also, the FIC50 in the assay with Plasmodium falciparum [20] is listed as 1.2; in the assay on Plasmodium falciparum [21], 1.5; in the assay on Plasmodium falciparum [22] it was 1.3; in the assay on Plasmodium falciparum [23], 1.2; with Plasmodium falciparum [24] it was 1.3; in the assay on Plasmodium falciparum [25] it was 1.3. Further, the FIC50 is reported as 2.3 in the assay with Plasmodium falciparum [26], 1.4 in the assay with Plasmodium falciparum [27], 1.5 with Plasmodium falciparum [28] and 1.5 with Plasmodium falciparum [29].
As for `C[C@@H]1CC[C@H]2[C@@H](C)C(=O)O[C@@H]3O[C@@]4(C)CC[C@@H]1[C@]32OO4` [ARTEMISININ], the FIC50 was found to be 2.2 with Plasmodium falciparum [2]; 1.3 in the assay with Plasmodium falciparum [3]; 1.1 with Plasmodium falciparum [4]; 2.8 in the assay with Plasmodium falciparum [5]; 1.4 with Plasmodium falciparum [6]; 1.2 in the assay on Plasmodium falciparum [7]. Moreover, the FIC50 in the assay on Plasmodium falciparum [8] is recorded as 1.9; in the assay on Plasmodium falciparum [9], 4; in the assay on Plasmodium falciparum [10], 1.4; in the assay on Plasmodium falciparum [11], 1.2; in the assay on Plasmodium falciparum [12], 1.1; with Plasmodium falciparum [13] it was 1.1. Besides, the FIC50 with Plasmodium falciparum [14] was determined as 2.3; in the assay on Plasmodium falciparum [15] it was 1.1; in the assay on Plasmodium falciparum [16], 2; with Plasmodium falciparum [17] it was 2; with Plasmodium falciparum [18] it was 1; in the assay with Plasmodium falciparum [19] it was 1.1. Besides, the FIC50 with Plasmodium falciparum [20] is listed as 1.1; in the assay with Plasmodium falciparum [21], 1.9; in the assay on Plasmodium falciparum [22], 2.6; with Plasmodium falciparum [23], 2.5; in the assay with Plasmodium falciparum [24], 2.8; in the assay on Plasmodium falciparum [25], 1.3. Further, the FIC50 came out at 1.3 in the assay with Plasmodium falciparum [26], 2.3 in the assay on Plasmodium falciparum [27], 2.1 with Plasmodium falciparum [28] and 1.8 with Plasmodium falciparum [29].
In the case of `CC1(C)CC(C(=O)O)CC(C)(C)N1[O]`, the IC50 in the assay on Plasmodium falciparum [1] stood at 0.00057 µg/mL (≈ 0.00285 µM); in the assay on Plasmodium falciparum [30] it was 0.00054 µg/mL (≈ 0.0027 µM).
Take `CC(C)(N)CNC(=O)CC1CC[C@]2(CC1)OC[C@]1(O2)C2CC3CC(C2)CC1C3` (stereo partly drawn): the half-inhibitory concentration (IC50) with Plasmodium falciparum [1] (setting [31]) was 12 µg/mL (≈ 30.7 µM).
As to `CC1(C)CC(O)CC(C)(C)N1[O]` [TEMPOL], the IC50 in the assay with Plasmodium falciparum [1] (setting [31]) was 19 µg/mL (≈ 110 µM).
On the same count and under the same terms, the value for `CC1(C)CC(=O)CC(C)(C)N1[O]` was 2.2 µg/mL (≈ 12.9 µM); that for `C[C@@H]1CC[C@H]2[C@@H](C)C(=O)O[C@@H]3O[C@@]4(C)CC[C@@H]1[C@]32O4` [DEOXYARTEMISININ] was 34 µg/mL (≈ 128 µM).

The record behind these values is ChEMBL document CHEMBL1671678, “Probing the antimalarial mechanism of artemisinin and OZ277 (arterolane) with nonperoxidic isosteres and nitroxyl radicals” (Antimicrob Agents Chemother, 2010).
